According to patent publication US20260035339A1, “TETRAHYDRONAPHTHALENE DERIVATIVE” (ATRANSEN PHARMA LTD., priority 2022, published 2026):

Tests used:
human LAT1 [1] = molecular target: T1, human LAT1 (Homo sapiens, UniProt Q01650); test: Leucine uptake persistence inhibitory effect after compound removal in human-LAT1 highly expressing cell line; format: cell-based; conditions: 20 μM compound for 30 minutes, removed, uptake measured 30 minutes later
Procedure: The uptake of [^14C]L-leucine remaining after the compound of the present invention was caused to act in advance and removed in the human-LAT1 highly expressing cell line was examined. In the same manner as in the uptake inhibition test, the cell line was seeded in a 24-well plate, and an MEM (Minimum Essential Medium) medium containing 20 μM of the compound (racemic form) was added to the wells and allowed to act for 30 minutes. An MEM medium containing no compound was used as a control. After the compound was caused to act, the cells were washed 3 times with the MEM medium and cultured in the MEM medium for an additional 30 minutes. Thereafter, washing was performed 3 times with Na^+Free-HBSS, and 1 μM of [^14C]L-leucine dissolved in Na^+Free-HBSS was taken up for 1 minute. The cells were washed 3 times with ice-cooled Na^+Free-HBSS, and the amount of [^14C]L-leucine taken up in the cells was determined with a liquid scintillator. In the same manner as in other tests, the amount of protein in the cell fluid was measured, and the uptake amount of [^14C]L-leucine per 1 mg of protein in the cell fluid per minute was determined.

[2] = tested on: Mouse colorectal cancer-derived CT26 cells; test: Cell proliferation inhibitory effect using mouse colorectal cancer cells (CCK-8 assay); format: cell-based; conditions: 72 hours compound treatment, read-out: Evaluation of IC50 (proliferation inhibition rate of 50%)
Procedure, shortened: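 Cells seeded at 1000 per well in RPMI 1640 with 10% FBS; after 24 h medium replaced with compound at 0.01-30 μM. Viable cells counted by CCK-8 after 72 h of treatment, and IC50 taken as the concentration giving 50% proliferation inhibition relative to untreated control.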

[3] = tested on: Mouse triple negative breast cancer cells 4T1 and mouse colorectal cancer cells CT26; test: BNCT-enhancing effect using mouse allograft tumor model; format: in vivo, BALB/c mice; conditions: neutron rays 5 MW for 30 minutes
Procedure: Mouse triple negative breast cancer cells 4T1 and mouse colorectal cancer cells CT26 were plate-cultured and then transplanted subcutaneously into the lower limbs of BALB/c mice. After 1 week, 400 mg/kg of L-[10B]BPA or a solvent as a control was intravenously administered through the tail vein. In Group 1, the compound of Example 1-45 was administered intravenously at a dose of 25 mg/kg after 1 hour and 1.5 hours from the administration of L-[10B]BPA. In Group 2, the solvent was administered instead of L-[10B]BPA, and after 1 hour and 1.5 hours, the compound of Example 1-45 obtained in the present invention was administered intravenously at a dose of 25 mg/kg. In Group 3, the solvent was administered intravenously instead of the compound of Example 1-45 after 1 hour and 1.5 hours from the administration of L-[10B]BPA. For Groups 1, 2, and 3, the lower limbs were irradiated with neutron rays under anesthesia after 2.5 hours from L-[10B]BPA administration or solvent administration as the control (5 MW for 30 minutes). The tumors were excised after 11 days from irradiation and the volumes thereof were compared.

human LAT1 [4] = molecular target: T1, human LAT1; test: [14C]L-leucine uptake inhibition test using human-LAT1 stably expressing HEK293 cell line; format: cell-based; parameters: having full-length cDNA of human LAT1 or LAT2 inserted under a promoter of CMV; expressed in transfected cells; key to Assay Data: degree of [14C]L-leucine uptake inhibition compared with BCH: a test compound having a higher inhibitory effect than BCH is denoted by A; a test compound having the same inhibitory effect as BCH is denoted by B; a test compound having a lower inhibitory effect than BCH is denoted by C
Procedure, shortened: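 HEK293 cells stably expressing human LAT1, preincubated 10 min in Na^+-free HBSS, then exposed 1 min to 1 μM [14C]L-leucine with racemic compound (0.1, 1.0, 10, 0 μM). Lysate radioactivity counted by scintillation and normalized to protein as uptake per mg protein per minute; graded against BCH.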

[5] = tested on: Human breast cancer cells MCF7; test: BNCT-enhancing effect by L-BPA confinement using cultured cells (colony formation after neutron irradiation); format: cell-based; conditions: MCF7 loaded with 100 μM L-[10B]BPA, not treated with Example 1-1; neutron rays 5 MW for 4 minutes
Procedure: Human breast cancer cells MCF7 were plate-cultured in an RPMI medium for 48 hours, then replaced with an RPMI medium containing 100 μM of L-[10B]BPA, and cultured for 15 minutes to allow the L-[10B]BPA to be taken up in the cells. After washing with HBSS, the cells were cultured in an RPMI medium for 60 minutes, and after further washing with HBSS, the cells were peeled off and stored in HBSS at room temperature for 1.5 hours ((−) in FIG. 3A). L-BPA was taken up in the cells, washed with HBSS and then cultured in an RPMI medium containing the compound of Example 1-1 (10 μM) obtained in the present invention for 60 minutes, and after further washing with HBSS, the cells were peeled off and stored in HBSS at room temperature for 1.5 hours ((+) in FIG. 3A). The cells were cultured in an RPMI medium containing no L-[10B]BPA for 15 minutes, and after washing with HBSS, the cells were peeled off and stored in HBSS at room temperature for 1.5 hours ((No BPA Hot control) in FIG. 3A). These three cell samples were irradiated with neutron rays (5 MW for 4 minutes). After irradiation, in order to measure viable cells, the cells were plate-cultured and the number of colonies generated after 2 weeks was measured. The number of viable cells was evaluated as surviving fraction (%) (FIG. 3A).

T1 sequence (Q01650 whole entry): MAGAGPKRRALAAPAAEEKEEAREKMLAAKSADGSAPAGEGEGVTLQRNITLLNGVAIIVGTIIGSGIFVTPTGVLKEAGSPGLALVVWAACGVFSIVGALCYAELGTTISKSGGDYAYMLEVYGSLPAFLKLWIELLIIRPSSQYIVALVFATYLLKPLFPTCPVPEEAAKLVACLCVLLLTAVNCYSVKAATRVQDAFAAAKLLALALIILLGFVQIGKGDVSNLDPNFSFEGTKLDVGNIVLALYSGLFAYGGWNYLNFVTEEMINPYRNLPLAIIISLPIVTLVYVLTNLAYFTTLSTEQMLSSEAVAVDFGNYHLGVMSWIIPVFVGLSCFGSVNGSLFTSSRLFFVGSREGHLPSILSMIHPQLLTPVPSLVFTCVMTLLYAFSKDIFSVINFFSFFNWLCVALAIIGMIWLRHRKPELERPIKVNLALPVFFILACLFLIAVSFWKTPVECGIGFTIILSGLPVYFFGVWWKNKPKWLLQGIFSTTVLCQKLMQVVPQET
T1 sequence (P08195 102-630 partner): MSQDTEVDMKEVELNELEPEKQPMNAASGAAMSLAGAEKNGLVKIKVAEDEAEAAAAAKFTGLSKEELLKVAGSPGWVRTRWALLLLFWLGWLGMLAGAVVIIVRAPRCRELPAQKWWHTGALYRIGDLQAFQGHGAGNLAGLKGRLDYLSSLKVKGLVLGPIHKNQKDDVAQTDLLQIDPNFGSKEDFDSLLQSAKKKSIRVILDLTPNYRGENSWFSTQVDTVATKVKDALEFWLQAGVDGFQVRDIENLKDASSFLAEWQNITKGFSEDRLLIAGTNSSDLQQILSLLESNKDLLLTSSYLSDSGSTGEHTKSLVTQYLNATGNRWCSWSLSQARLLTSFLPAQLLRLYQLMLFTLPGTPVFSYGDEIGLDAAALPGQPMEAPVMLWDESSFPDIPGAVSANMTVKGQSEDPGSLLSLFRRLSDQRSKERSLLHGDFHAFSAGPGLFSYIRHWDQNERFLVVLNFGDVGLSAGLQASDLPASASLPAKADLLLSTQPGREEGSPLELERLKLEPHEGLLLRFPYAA

Row | Compound | sustained LAT1 inhibitory effect as compared with Example 1-1 (human LAT1 [1]) | IC50 [2] [nM] | antitumor effect by neutron irradiation (tumor volume 11 days after irradiation) ([3]; Group 1: 400 mg/kg L-[10B]BPA i.v., then compound 25 mg/kg i.v. after 1 and 1.5 hours) | Assay Data: degree of [14C]L-leucine uptake inhibition compared with BCH (human LAT1 [4]; compound (racemic form) and BCH at 0.1, 1.0, 10 μM, 1 μM [14C]L-leucine, 1 minute, Na+-free HBSS) | LAT1 inhibitory effect, compounds singled out (in words) (human LAT1 [4]; same test as Table 1) | cell death caused by neutron irradiation, L-[10B]BPA without compound treatment [5] | BNCT effect of L-[10B]BPA without compound (tumor volume 11 days after irradiation) ([3]; Group 3: 400 mg/kg L-[10B]BPA i.v., solvent instead of Example 1-45)
1 | Cl.NC1(C(=O)O)CCc2ccc(Oc3ccccc3-c3cccc(F)c3F)cc2C1 (stereo not shown) [Example 1-45, 2-Carboxy-7-((2′,3′-difluoro-[1,1′-biphenyl]-2-yl)oxy)-1,2,3,4-tetrahydronaphthalene-2-aminium chloride] | more remarkable effect | ≤ 900 | large antitumor effect | A | particularly remarkable effects |  | 
2 | N[C@@H](Cc1ccc(B(O)O)cc1)C(=O)O [L-[10B]BPA, L-boronophenylalanine, reference compound] |  |  |  |  |  | about No BPA Hot control | no BNCT effect was obtained
